The supplement of paper PMC10307832

Tests used:
Test in all cases: relative viability (nuclei count vs DMSO), 5 days (fraction); higher = more cells survive
[1] = compound: Cn1cc(-c2cnn3c(N)c(Br)c([C@@H]4CCCNC4)nc23)cn1 + O=C(CCCCCCC(=O)Nc1ccccc1)NO [Vorinostat] (partner 1 µM)
In short: (§1)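 Five library-drug doses in √10 steps were combined with a fixed anchor-drug dose, or a single drug was given alone, by pin tool to lung cancer cell lines in 1536-well plates the day after seeding. Nuclei were stained and counted after 5 days. Relative viability is the nuclei count in treated wells over that in vehicle wells, taken as the median of duplicate plates.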

[2] = compound: Cn1cc(-c2cnn3c(N)c(Br)c([C@@H]4CCCNC4)nc23)cn1 + C[C@]1(O)C[C@@H](c2nc(-c3ccc4ccc(-c5ccccc5)nc4c3)c3c(N)nccn32)C1 [Linsitinib] (partner 1 µM)
In short: as §1

[3] = compound: Cn1cc(-c2cnn3c(N)c(Br)c([C@@H]4CCCNC4)nc23)cn1 + CC1(C)CCC(c2ccc(Cl)cc2)=C(CN2CCN(c3ccc(C(=O)NS(=O)(=O)c4ccc(N[C@H](CCN5CCOCC5)CSc5ccccc5)c(S(=O)(=O)C(F)(F)F)c4)cc3)CC2)C1 [Navitoclax] (partner 0.5 µM)
In short: as §1

[4] = compound: Cn1cc(-c2cnn3c(N)c(Br)c([C@@H]4CCCNC4)nc23)cn1 + Cc1nc(NC(=O)N2CCC[C@H]2C(N)=O)sc1-c1ccnc(C(C)(C)C(F)(F)F)c1 [Alpelisib] (partner 2 µM)
In short: as §1

Cell Line	relative viability ([1]; first compound 0.05 µM)	relative viability ([1]; first compound 0.1581 µM)	relative viability ([1]; first compound 0.5 µM)	relative viability ([1]; first compound 1.581 µM)	relative viability ([1]; first compound 5 µM)	relative viability ([2]; first compound 0.05 µM)	relative viability ([2]; first compound 0.1581 µM)	relative viability ([2]; first compound 0.5 µM)	relative viability ([2]; first compound 1.581 µM)	relative viability ([2]; first compound 5 µM)	relative viability ([3]; first compound 0.05 µM)	relative viability ([3]; first compound 0.1581 µM)	relative viability ([3]; first compound 0.5 µM)	relative viability ([3]; first compound 1.581 µM)	relative viability ([3]; first compound 5 µM)	relative viability ([4]; first compound 0.05 µM)	relative viability ([4]; first compound 0.1581 µM)	relative viability ([4]; first compound 0.5 µM)	relative viability ([4]; first compound 1.581 µM)	relative viability ([4]; first compound 5 µM)
LCLC-97TM1	0.67	0.95	0.936	0.582	0.433	0.194	0.2	0.184	0.21	0.176	0.462	0.439	0.325	0.343	0.46	0.188	0.299	0.23	0.228	0.189
HARA	0.62	0.511	0.511	0.433	0.556	1.11	1.03	1.23	0.761	0.402	1.11	1.21	1.25	1.05	0.725	0.875	0.701	0.792	0.806	0.619
HCC-78	0.431	0.609	0.478	0.41	0.416	0.507	0.519	0.524	0.604	0.385	0.851	0.794	0.796	0.737	0.56	0.365	0.334	0.372	0.354	0.289
NCI-H1666	1.16	1.03	0.886	0.906	0.844	0.896	0.745	0.653	0.714	0.711	0.906	0.956	0.871	0.829	0.842	1.02	1.01	0.853	0.807	0.785
NCI-H2347	0.525	0.585	0.511	0.482	0.4	0.992	1.01	0.986	0.917	0.85	0.742	0.818	0.735	0.576	0.678	0.974	1.19	0.959	0.957	0.812
NCI-H838	0.788	0.779	0.742	0.65	0.527	0.984	1.09	0.987	0.824	0.962	1.15	1.21	1.08	1.08	1.16	1.08	1.16	0.94	0.784	1.02
NCI-H2023	0.65	0.349	0.428	0.177	0.097	0.582	0.452	0.421	0.244	0.135	1.06	0.727	0.789	0.304	0.192	0.494	0.497	0.48	0.3	0.193
201T	0.938	1.05	0.996	0.897	0.549	1.08	1.05	1.12	0.97	0.936	1.14	1.18	1.16	1.32	1.22	1.04	1.02	1.05	0.98	0.909
NCI-H1915	0.511	0.535	0.666	0.574	0.432	1.1	1.07	1.05	1.16	1.14	0.796	0.805	0.736	0.765	0.775	1.01	1.08	1.03	1.08	1.1
NCI-H2009	0.82	0.806	0.722	0.818	0.528	1.14	1.31	1.22	1.12	1.09	1.16	1.28	1.1	1.1	1	1.17	1.25	1.09	1.09	0.849
BEN	0.659	0.531	0.558	0.644	0.508	1.04	0.977	0.918	0.686	0.738	0.0592	0.289	0.0589	0.0666	0.0768	0.891	1.15	1.05	0.869	0.778
PC-14	0.752	0.601	0.527	0.223	0.117	0.854	1.11	1.05	0.877	0.578	1.06	1.14	0.924	0.69	0.444	0.939	1.14	0.883	0.858	0.485
SK-MES-1	1.22	0.877	0.788	0.38	0.216	1.05	1.1	1.04	0.971	0.289	1.29	1.25	1.11	1.02	0.352	1.01	1.03	0.94	0.763	0.592
NCI-H727	1.04	1.17	1.33	1.15	1.13	0.189	0.261	0.235	0.289	0.236	0.4	0.43	0.333	0.463	0.212	0.575	0.535	0.534	0.412	0.361
NCI-H1355	0.645	0.743	0.664	0.524	0.564	0.798	0.911	0.738	0.82	0.814	0.964	0.945	0.926	0.986	0.857	0.797	0.875	0.819	0.849	0.825
NCI-H1975	0.793	0.715	0.686	0.547	0.548	1.08	0.918	0.842	0.79	0.805	1.21	1.14	1.01	0.908	0.989	0.685	0.681	0.655	0.404	0.525
LK-2	0.276	0.351	0.236	0.249	0.162	0.548	0.446	0.51	0.369	0.317	0.915	0.711	0.699	0.627	0.555	1.07	0.945	1.11	0.618	0.595
NCI-H661	0.829	0.82	0.833	0.736	0.63	0.557	0.592	0.579	0.479	0.314						0.596	0.611	0.521	0.667	0.297
HCC-366	0.333	0.402	0.337	0.301	0.211	0.71	0.739	0.483	0.521	0.18	1.11	1.07	1.09	0.918	0.771	0.439	0.539	0.493	0.368	0.156

Cell Line	relative viability ([1]; first compound 0.05 µM)	relative viability ([1]; first compound 0.1581 µM)	relative viability ([1]; first compound 0.5 µM)	relative viability ([1]; first compound 1.581 µM)	relative viability ([1]; first compound 5 µM)	relative viability ([2]; first compound 0.05 µM)	relative viability ([2]; first compound 0.1581 µM)	relative viability ([2]; first compound 0.5 µM)	relative viability ([2]; first compound 1.581 µM)	relative viability ([2]; first compound 5 µM)	relative viability ([3]; first compound 0.05 µM)	relative viability ([3]; first compound 0.1581 µM)	relative viability ([3]; first compound 0.5 µM)	relative viability ([3]; first compound 1.581 µM)	relative viability ([3]; first compound 5 µM)	relative viability ([4]; first compound 0.05 µM)	relative viability ([4]; first compound 0.1581 µM)	relative viability ([4]; first compound 0.5 µM)	relative viability ([4]; first compound 1.581 µM)	relative viability ([4]; first compound 5 µM)
HOP-62	0.698	0.775	0.645	0.386	0.209	1.17	1.08	0.693	0.873	0.956	0.985	1.18	1.16	0.97	0.479	1.1	0.815	0.997	0.649	1.19
NCI-H1944	0.566	0.575	0.463	0.452	0.219	1.16	1.2	1.12	1.06	0.867	0.92	1.01	1.05	1.01	0.858	0.808	0.797	0.825	0.717	0.626
SW 1573	0.818	0.967	0.682	0.582	0.721	0.689	0.775	0.888	0.753	0.805	0.976	1.07	1.08	0.853	1.07	0.779	1.07	0.801	0.78	0.616
EBC-1						0.937	1.09	0.933	0.884	0.799	0.39	0.347	0.286	0.304	0.238	0.902	0.913	0.704	0.774	0.753
NCI-H1648	0.449	0.296	0.313	0.327	0.463															
SW 900	0.47	0.362	0.648	0.369	0.181															
ABC-1		0.955	1.04	1.02	0.356	0.801	1.01	0.781	0.716	0.288						1.14	1.03	0.814	0.917	0.401
NCI-H1792						0.709	0.531	0.347	0.327	0.274	0.35	0.674	0.322	0.366	0.677	0.883	0.887	0.411	0.408	0.488
NCI-H1563						1.13	1.27	1.26	1.17	0.848						0.827	0.835	0.935	0.8	0.762
NCI-H1299						1.02	1.04	0.959	0.833	0.626	1.03	1.06	1.08	1.02	0.936	1.03	1.13	1.09	1.05	0.954
ChaGo-K-1	0.736	0.785	0.779	0.687	0.753						0.966	0.967	0.981	0.737	0.607					
NCI-H2170	0.826	0.882	0.659	0.796	0.989						0.584	0.554	0.453	0.527	0.713	0.865	0.764	0.654	0.705	0.88
NCI-H522	0.845	0.936	0.871	0.842	0.797															
A549						0.653	0.664	0.48	0.588	0.43	1.25	1.3	1.14	0.916	0.917	0.659	0.822	0.653	0.752	0.495
NCI-H358	0.748	0.732	0.422	0.455	0.302	0.7	0.626	0.608	0.581	0.523						0.957	0.766	0.852	0.518	0.78
NCI-H650	0.412	0.514	0.384	0.447	0.337	0.808	0.775	0.846	0.795	0.657						1.16	1.22	1.23	1.05	0.858
LCLC-103H	0.738	0.879	0.824	0.615	0.597	0.978	1.18	1.15	1.06	0.915						0.957	0.962	0.867	1.05	0.847
NCI-H1650	0.594	0.524	0.471	0.595	0.336						1.27	1.23	1.25	0.845	0.67					
Calu-6						0.898	1.1	0.945	0.52	0.176	0.997	0.597	0.68	0.211	0.146	0.98	0.82	0.883	0.379	0.182
